Test results reported in ChEMBL document CHEMBL1142376, “Novel CADD-based peptidyl vinyl ester derivatives as potential proteasome inhibitors” (Bioorg Med Chem Lett, 2008).

Columns and labels:
BGC-823 = assay: Antiproliferative activity against human BGC823 cells at 10 umole; format: functional
[1] = Inhibition of trypsin-like activity of 20S proteasome
[2] = Inhibition of post acidic-like activity of 20S proteasome
KB = assay: Antiproliferative activity against human KB cells at 10 umole; format: functional
Bel-7402 = assay: Antiproliferative activity against human Bel7402 cells at 10 umole; format: functional
HL-60 = assay: Antiproliferative activity against human HL60 cells at 10 umole; format: functional
[3] = Inhibition of chymotrypsin-like activity of 20S proteasome

Structure (SMILES) | IC50 [1] [µmol] | IC50 [2] [µmol] | IC50 [3] [µmol] | Activity (BGC-823) [%] | Activity (KB) [%] | Activity (Bel-7402) [%] | Activity (HL-60) [%]
CCOC(=O)/C=C/[C@H](C[C@@H]1CCNC1=O)NC(=O)[C@@H](NC(=O)[C@@H](NC(=O)OC(C)(C)C)[C@@H](C)CC)[C@@H](C)O | > 100 | > 100 | > 100 | 0.69 | -10.29 | -16.67 | 0.71
CC(C)(C)OC(=O)N[C@@H](Cc1ccccc1)C(=O)N[C@@H](CO)C(=O)N[C@H](/C=C/C(=O)O)C[C@@H]1CCNC1=O | > 100 | > 100 | > 100 | 16.9 | -15.6 | 1.66 | 31.04
CCOC(=O)/C=C/[C@H](C[C@@H]1CCNC1=O)NC(=O)[C@H](CO)NC(=O)[C@@H](NC(=O)OC(C)(C)C)C(C)C | > 100 | > 100 | > 100 | 5.52 | -3.45 | -4.98 | -1.94
CCOC(=O)/C=C/[C@H](C[C@@H]1CCNC1=O)NC(=O)[C@H](Cc1ccc(O)cc1)NC(=O)[C@H](CC(C)C)NC(=O)[C@H](CC(C)C)NC(=O)OC(C)(C)C | > 100 | > 100 | 63.41 | 28.9 | 6.64 | 7.64 | 17.73
CCOC(=O)/C=C/[C@H](C[C@@H]1CCNC1=O)NC(=O)[C@H](CC(C)C)NC(=O)[C@H](CC(C)C)NC(=O)[C@H](CC(C)C)NC(=O)OC(C)(C)C | > 100 | > 100 | 48.31 | 16.14 | 15.73 | 12.02 | 17.17
CCOC(=O)/C=C/[C@H](Cc1ccc(O)cc1)NC(=O)[C@H](CO)NC(=O)[C@@H](NC(=O)OC(C)(C)C)C(C)C | > 100 | > 100 | > 100 | 22.59 | 7.44 | 3.39 | 26.73

Continued, in another order:

IC50 [1] [µmol] | IC50 [2] [µmol] | IC50 [3] [µmol] | Structure (SMILES) | Activity (BGC-823) [%] | Activity (KB) [%] | Activity (Bel-7402) [%] | Activity (HL-60) [%]
> 100 | > 100 | > 100 | CCOC(=O)/C=C/[C@H](Cc1ccc(O)cc1)NC(=O)[C@H](Cc1ccccc1)NC(=O)[C@H](CC(C)C)NC(=O)OC(C)(C)C | 13.74 | -5.34 | -4.24 | 7.87
> 100 | > 100 | > 100 | CCOC(=O)/C=C/[C@H](Cc1ccccc1)NC(=O)[C@H](CO)NC(=O)[C@H](Cc1ccccc1)NC(=O)OC(C)(C)C | 8.28 | 5.23 | -8.04 | 21.08
> 100 | > 100 | > 100 | CCOC(=O)/C=C/[C@H](Cc1ccccc1)NC(=O)[C@H](CO)NC(=O)[C@@H](NC(=O)OC(C)(C)C)C(C)C | 0.04 | -6.79 | -11.09 | 0.36
